Measurements taken from patent publication US8198317B2, “Methylenedioxy phenolic compounds and their use to treat disease” (The Ohio State University Research Foundation, priority 2008, dated 2012).

Tests used:
[1] = system: New Zealand White rabbits; test: Oil Red O staining of abdominal aorta of NZW rabbits; format: in vivo, rabbit
Protocol: (§1) Animal Model: 15 male New Zealand White rabbits (Charles River, Mass.) were fed with high fat diet (HFD) (Harlan Teklad rabbit diet with 0.5% cholesterol, TD 87251). After 4 weeks of high fat diet, rabbits were randomized into three different treatment groups, normal control (n=5), lipoic acid (100 mg/kg/day) (n=5), INV 70-65 (100 mg/kg/day) (n=5). These drugs were administered to the animals via their chow by mixing the drugs with the high fat diet. A fixed amount of chow and drugs admixed in the chow were fed to all animals every day after carefully calculating food intake in each rabbit. Drugs were dissolved in 100% ethanol and sprayed onto the diet and kept under vacuum to let ethanol evaporate overnight. Two (2) weeks after drug or control admixed HFD, all rabbits underwent aortic balloon denudation surgeries followed by 12 weeks of continued administration of drug or controls admixed with HFD. FIG. 29 provides an outline of the experimental design.
Hypercholesterolemia and oxidative stress play an important role in the development of atherosclerosis. The rabbits were sacrificed and abdominal aortas were fixed in 4% PFA (paraformaldehyde). The lipid deposition in the aortic wall was then visualized by oil red staining.

[2] = system: New Zealand White rabbits; test: MRI assessment of atherosclerosis in balloon denuded NZW rabbits; format: in vivo, rabbit
Protocol: as §1
MRI experiments were conducted at two time points: 1 week and 12 weeks after the balloon denudation procedure (FIG. 29). […] MR images were analyzed using a Siemens Leonardo Workstation (Siemens Healthcare Inc. Germany).
To assess the different rates of atherosclerosis plaque progression for each rabbit group, the aortic wall was identified in the pre-contrast images at both MRI time points. […] To account for the variable number of slices, for each rabbit a normalized aortic wall volume was calculated.
To assess plaque neovasculature progression in the different treatment groups, only the 12 weeks post balloon denudation MR images were used. […] The signal to noise ratio (SNR) for each slice was calculated as the mean signal obtained from the vessel wall divided by the standard deviation of the noise from a region outside the body. A ratio of the SNR enhancement for each rabbit was obtained by dividing the post and pre contrast calculated SNRs.

[3] = system: C57Bl/6 mice; test: SREBP-2, LDLR and LDL in vivo in mice; parameters: species or system mouse; details: 20 mg/kg/day intraperitoneally, two weeks
Protocol: To study the effect of INV-75 on SREBP activity in vivo experiment was performed as follows: C57bl/6 mice (6/group) were intraperitoneally injected with INV-75 (20 mg/kg/day, for two weeks). The binding activity of SREBP2 in nuclear proteins of liver homogenates was measured by electrophoretic migration shift assay (EMSA). Simultaneously multiple genes involved in cholesterol synthesis and regulation, apolipoprotein gene expression and expression of PCSK9 (Proprotein convertase subtilisin/kexin type 9) were also studied in the liver. PCSK9 is known to regulate LDL receptor expression by binding to the epidermal growth factor-like repeat A (EGF-A) domain of the low-density lipoprotein receptor (LDLR), inducing LDLR degradation.

[4] = target: T1, PPARγ (Homo sapiens, UniProt P37231); test: GAL4-PPARγ-LBD luciferase assay in HepG2 cells; format: cell-based; details: 1 μM to 1000 μM
T1 construct: GAL4-PPARδ-LBD plasmid+UAS-Luciferase and GAL4-PPARα-LBD plasmid+UAS-Luciferase; expressed in transfected cells; host or cells: HepG2
T1 sequence (P37231 238-503 limits assumed, species assumed): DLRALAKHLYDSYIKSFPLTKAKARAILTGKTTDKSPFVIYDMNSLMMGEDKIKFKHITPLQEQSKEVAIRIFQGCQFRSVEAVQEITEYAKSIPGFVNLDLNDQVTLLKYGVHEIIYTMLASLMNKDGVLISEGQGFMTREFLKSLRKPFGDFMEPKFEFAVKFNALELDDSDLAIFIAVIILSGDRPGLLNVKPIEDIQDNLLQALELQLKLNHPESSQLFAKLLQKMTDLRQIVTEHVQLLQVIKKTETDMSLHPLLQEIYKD
Excerpt: We used a reporter gene assay in HepG2 cells to screen for agonists of the peroxisome proliferator-activated receptors. Peroxisome proliferator-activated receptors (PPARs) and other members of the nuclear hormone receptor family are important drug targets for the treatment of metabolic diseases. PPARs play crucial roles in lipid and glucose metabolism, respectively. Therefore, screening methods that help to rapidly identify activators of these receptors should be of considerable value. INV-75 activated a classic PPARα gene, Acetyl-CoA Oxidase (ACO) in a dose dependent and time dependent fashion (FIG. 6A). The time course experiment was performed in presence of INV-75 up to 15 hours. […] We next tested the specificity of INV-75 for PPARα by performing experiments in HepG2 cells transfected with yeast GAL4-PPARα-LBD plasmid+UAS-Luciferase; GAL4-PPARδ-LBD plasmid+UAS-Luciferase and […]. The PPARα, PPARδ and PPARγ binding assays were performed using multiple concentrations of INV-75 (1 μM, 10 μM, 100 μM and 1000 μM). The level of luciferase activity corresponded to the degree of PPAR activation. The results were compared with classic PPAR agonists such as WY-14643 (PPARα agonist), Bezafibrate (PPARδ agonist) and Rosiglitazone ([…]).

[5] = system: Watanabe Heritable Hyperlipidemic Rabbits (WHHL); test: Superoxide by dihydroethidium staining of WHHL aorta sections; format: in vivo, rabbit
[6] = system: Watanabe Heritable Hyperlipidemic Rabbits (WHHL); test: Quantitative RT-PCR of genes in thoracic aorta of WHHL rabbits; format: in vivo, rabbit
Protocol: Total RNA was isolated with TRIzol reagent (Invitrogen). Four microgram of total RNA was reverse transcribed by random hexamers and ThermoScript RT-PCR System (Invitrogen). Quantitative real-time PCR was performed with the Stratagene Mx3005 using SYBER Green PCR Master Mix (Applied Biosystems, Foster City, Calif.). Relative expression level compared to GAPDH was obtained. The primers used in the experiment are depicted in the table below and were purchased from Invitrogen.

| effects on PPARγ [4] | Compound | reduction in lipid deposition in the aortic wall compared to controls ([1]; NZW) | reduction in lipid deposition in the aortic wall compared to lipoic acid ([1]; NZW) | lipid content in the plaque area (Oil Red O) compared to the control group ([1]; NZW abdominal aorta) | gadolinium enhancement of the aorta ([2]; compared to controls and lipoic acid treatment) | plaque burden by MRI ([2]; high fat diet, 100 mg/kg/day, 12 weeks) | LDL [3] | LDL receptor expression in liver (real-time RT-PCR, western blot) [3] | SREBP2 activation in liver (EMSA) [3] | other lipoproteins [3] | basal super oxide production in the aorta (DHE) [5] | mRNA expression of ICAM-1 ([6]; WHHL thoracic aorta) | mRNA expression of L-selectin ([6]; WHHL thoracic aorta) | mRNA expression of MCP-1 ([6]; WHHL thoracic aorta) | mRNA expression of VCAM-1 ([6]; WHHL thoracic aorta) | mRNA expression of the angiotensin II Type I receptor ([6]; WHHL, data not shown) |
| --- | --- | --- | --- | --- | --- | --- | --- | --- | --- | --- | --- | --- | --- | --- | --- | --- |
|  | O=C(CCCCC1CCSS1)Oc1ccc2c(c1)OCO2 (stereo not shown) [INV-7065, 3,4-Methylenedioxy phenyl lipoate] | about 80% | about 40% | reduction | reduction | marked attenuation |  |  |  |  |  |  |  |  |  |  |
| without effects | CC(=O)Oc1cc2c(cc1[N+](=O)[O-])OCO2 [INV-75, 3,4-methylenedioxy-6-nitrophenyl acetate] |  |  |  |  |  | significantly lowered | increase | dramatically activated | not other lipoproteins | reduction | decreased | decreased | decreased | decreased | decreased |
